Test results reported in ChEMBL document CHEMBL5523725, “Fragment-Based Anti-inflammatory Agent Design and Target Identification: Discovery of AF-45 as an IRAK4 Inhibitor to Treat Ulcerative Colitis and Acute Lung Injury” (J Med Chem, 2024).
One block for each molecule: values may come before it. Activity calls are given as the source filed them. The rule behind the calls is not given here.

Assays:
[1] = Cytotoxicity against mouse RAW264.7 cells assessed as cell viability by MTT assay; type: toxicity, cell-based; parameters: concentration or dose not given beside the values; settings: read-out: Activity
RAW264.7 = test: Antiinflammatory activity in LPS-induced mouse RAW264.7 cells assessed as inhibition of IL-6 release at 10 uM pretreated for 30 mins followed by LPS stimulation and measured after 24 hrs by ELISA relative to control; type: functional; settings: time 24.5 hrs
[2] = target: T1, Lymphocyte antigen 96 (Mus musculus) (UniProt Q9JHF9); test: Thermal stabilization of MD2 in mouse RAW264.7 cells assessed as reduction in decomposition at 10 uM at 45 to 51 degreeC measured after 4 hrs by CETSA; type: cell-based
T1 sequence (whole entry): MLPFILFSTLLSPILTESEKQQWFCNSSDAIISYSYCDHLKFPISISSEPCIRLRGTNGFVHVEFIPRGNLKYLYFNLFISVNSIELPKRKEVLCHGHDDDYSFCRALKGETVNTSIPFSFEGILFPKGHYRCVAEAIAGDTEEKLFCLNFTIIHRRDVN

Mus musculus [3] = test: Antiinflammatory activity in LPS induced C57BL/6 mouse model of acute lung injury assessed as reduction in number of macrophages in spleen at 20 mg/kg, ip preadministered for 30 mins followed by LPS administration and measured after 6 hrs by F4/80 labeling based immunohistochemical analysis; type: functional, organism-based; settings: time 6.5 hrs
Mus musculus [4] = test: Antiinflammatory activity in LPS induced C57BL/6 mouse model of acute lung injury assessed as reduction in over activation of spleen at 20 mg/kg, ip preadministered for 30 mins followed by LPS administration and measured after 6 hrs by F4/80 labeling based immunohistochemical analysis; type: functional, organism-based; settings: time 6.5 hrs
Mus musculus [5] = test: Antiinflammatory activity in LPS induced C57BL/6 mouse model of acute lung injury assessed as inhibition of TNFalpha release in BALF at 20 mg/kg, ip preadministered for 30 mins followed by LPS administration and measured after 6 hrs by ELISA; type: functional, organism-based; settings: time 6.5 hrs
Mus musculus [6] = test: Antiinflammatory activity in LPS induced C57BL/6 mouse model of acute lung injury assessed as inhibition of IL-6 release in BALF at 20 mg/kg, ip preadministered for 30 mins followed by LPS administration and measured after 6 hrs by ELISA; type: functional, organism-based; settings: time 6.5 hrs
Mus musculus [7] = test: Antiinflammatory activity in LPS induced C57BL/6 mouse model of acute lung injury assessed as reduction in macrophage infiltration in lung at 20 mg/kg, ip preadministered for 30 mins followed by LPS administration and measured after 6 hrs by F4/80 labeling based immunohistochemical analysis; type: functional, organism-based; settings: time 6.5 hrs
Mus musculus [8] = test: Antiinflammatory activity in LPS induced C57BL/6 mouse model of acute lung injury assessed as inhibition of IL-6 release in serum at 20 mg/kg, ip preadministered for 30 mins followed by LPS administration and measured after 6 hrs by ELISA; type: functional, organism-based; settings: time 6.5 hrs
Mus musculus [9] = test: Antiinflammatory activity in LPS induced C57BL/6 mouse model of acute lung injury assessed as reduction in spleen over activation at 20 mg/kg, ip preadministered for 30 mins followed by LPS administration and measured after 6 hrs by H and E staining based analysis; type: functional, organism-based; settings: time 6.5 hrs
Mus musculus [10] = test: Antiinflammatory activity in LPS induced C57BL/6 mouse model of acute lung injury assessed as reduction in white pulp fusion at 20 mg/kg, ip preadministered for 30 mins followed by LPS administration and measured after 6 hrs by H and E staining based analysis; type: functional, organism-based; settings: time 6.5 hrs
Mus musculus [11] = test: Antiinflammatory activity in LPS induced C57BL/6 mouse model of acute lung injury assessed as inhibition of TNFalpha release in serum at 20 mg/kg, ip preadministered for 30 mins followed by LPS administration and measured after 6 hrs by ELISA; type: functional, organism-based; settings: time 6.5 hrs
Mus musculus [12] = test: Antiinflammatory activity in male C57BL/6 mouse model of DSS-induced ulcerative colitis assessed as reduction in colonic structure destruction at 100 mg/kg, po administered for 11 days with subsequent administration of DSS for 8 days by H and E staining based analysis; type: functional, organism-based; settings: time 11.0 day
Mus musculus [13] = test: Antiinflammatory activity in male C57BL/6 mouse model of DSS-induced ulcerative colitis assessed as reduction in macrophage infiltration in colon at 100 mg/kg, po administered for 11 days with subsequent administration of DSS for 8 days by F4/80 labeling based immunohistochemistry analysis; type: functional, organism-based; settings: time 11.0 day
Mus musculus [14] = test: Anti-colitis activity in male C57BL/6 mouse model of DSS-induced ulcerative colitis assessed as colon length at 100 mg/kg, po administered for 11 days with subsequent administration of DSS for 8 days (reference value: 5.2 cm); type: functional; settings: time 11 day
Mus musculus [15] = test: Antiinflammatory activity in male C57BL/6 mouse model of DSS-induced ulcerative colitis assessed as reduction in macrophage infiltration in spleen at 100 mg/kg, po administered for 11 days with subsequent administration of DSS for 8 days by F4/80 labeling based immunohistochemistry analysis; type: functional, organism-based; settings: time 11.0 day
Mus musculus [16] = test: Antiinflammatory activity in male C57BL/6 mouse model of DSS-induced ulcerative colitis assessed as preservation of goblet cells at 100 mg/kg, po administered for 11 days with subsequent administration of DSS for 8 days by H and E staining based analysis; type: functional, organism-based; settings: time 11.0 day
Mus musculus [17] = test: Antiinflammatory activity in male C57BL/6 mouse model of DSS-induced ulcerative colitis assessed as restoration of protein status at 100 mg/kg, po administered for 11 days with subsequent administration of DSS for 8 days by H and E staining based analysis; type: functional, organism-based; settings: time 11.0 day
Mus musculus [18] = test: Antiinflammatory activity in male C57BL/6 mouse model of DSS-induced ulcerative colitis assessed as reduction in spleen to body weight ratio at 100 mg/kg, po administered for 11 days with subsequent administration of DSS for 8 days; type: functional, organism-based; settings: time 11.0 day

Structure (SMILES): CCN1CCN(CCOc2ncnc3cc(OC)c(OC)cc23)CC1
viability [1]: 90.1% | inhibition at 10 µM (RAW264.7): 40%

Structure (SMILES): COc1cc2ncnc(Oc3cccc(NC(=O)O[C@H]4C[C@@H](N)C4)c3)c2cc1OC
viability [1]: 106% | inhibition at 10 µM (RAW264.7): 46.9%

Structure (SMILES): COc1cc2ncnc(Oc3cccc(NC(=O)N[C@H]4CC[C@@H](NS(=O)(=O)c5ccccc5)CC4)c3)c2cc1OC
viability [1]: 112% | inhibition at 10 µM (RAW264.7): 16%

Structure (SMILES): Cn1c(CNC(=O)O[C@H]2CC[C@@H](N)CC2)nc2ccccc21
viability [1]: 90.1% | inhibition at 10 µM (RAW264.7): 52.8%

Activity [2]: Active
Structure (SMILES): COc1ccc(C(=O)/C=C/c2cccc(OC)c2OC)cc1

Structure (SMILES): COc1cc2c(N[C@H]3CC[C@@H](N)CC3)ncnc2cc1OCc1ccccc1
viability [1]: 86.7% | inhibition at 10 µM (RAW264.7): 88.6%

Structure (SMILES): N[C@H]1CC[C@@H](Oc2ncnc3cc(Cl)ccc23)CC1
viability [1]: 98.8% | inhibition at 10 µM (RAW264.7): 53.1%

Structure (SMILES): COc1cc2ncnc(O[C@H]3CC[C@H](N)CC3)c2cc1OC
viability [1]: 93.7% | inhibition at 10 µM (RAW264.7): 57.4%

Structure (SMILES): COc1cc2ncnc(N[C@H]3CC[C@@H](N)CC3)c2cc1OC
viability [1]: 91.1% | inhibition at 10 µM (RAW264.7): 83.7%

Structure (SMILES): COc1cc2ncnc(N[C@H]3CC[C@@H](NC(=O)c4ccc(F)cc4)CC3)c2cc1OC
viability [1]: 102% | inhibition at 10 µM (RAW264.7): 39.9%

Structure (SMILES): COc1cc2nc(Cl)nc(O[C@H]3CC[C@@H](N)CC3)c2cc1OC
viability [1]: 105% | inhibition at 10 µM (RAW264.7): 34.3%

Structure (SMILES): COc1cc2ncnc(Oc3cccc(NC(=O)N[C@H]4CC[C@@H](NC(=O)c5ccc(F)cc5Cl)CC4)c3)c2cc1OC
viability [1]: 130% | inhibition at 10 µM (RAW264.7): 9.4%

Structure (SMILES): COc1cc2ncnc(N[C@H]3CC[C@@H](NS(=O)(=O)c4ccc(C)cc4)CC3)c2cc1OC
viability [1]: 104% | inhibition at 10 µM (RAW264.7): 45.4%

Structure (SMILES): COc1cc2ncnc(NCCc3cccs3)c2cc1OC
viability [1]: 88.1% | inhibition at 10 µM (RAW264.7): 16.1%

Structure (SMILES): Cn1c(CNC(=O)O[C@H]2C[C@@H](N)C2)nc2ccccc21
viability [1]: 97.1% | inhibition at 10 µM (RAW264.7): 44.7%

Structure (SMILES): COc1cc2ncnc(Oc3cccc(NC(=O)N[C@H]4CC[C@@H](N)CC4)c3)c2cc1OC
viability [1]: 91.5% | inhibition at 10 µM (RAW264.7): 77.3%

Structure (SMILES): COc1cc2ncnc(N[C@H]3CC[C@@H](NC(=O)c4ccc(C)cc4)CC3)c2cc1OC
viability [1]: 97.8% | inhibition at 10 µM (RAW264.7): 42.3%

Structure (SMILES): C[C@@H]1C[C@H]2[C@@H]3CCC4=CC(=O)C=C[C@]4(C)[C@@]3(F)[C@@H](O)C[C@]2(C)[C@@]1(O)C(=O)CO
Activity (Mus musculus [3]): inactive | Activity (Mus musculus [4]): inactive | Activity (Mus musculus [5]): Active | Activity (Mus musculus [6]): Active | Activity (Mus musculus [7]): Active | Activity (Mus musculus [8]): Active | Activity (Mus musculus [9]): Active | Activity (Mus musculus [10]): Active | Activity (Mus musculus [11]): Active

Structure (SMILES): COCCOc1cc2ncnc(O[C@H]3CC[C@@H](N)CC3)c2cc1OCCOC
viability [1]: 98.6% | inhibition at 10 µM (RAW264.7): 52.7%

Structure (SMILES): COc1cc2ncnc(Oc3cccc(NC(=O)N[C@H]4CC[C@@H](NC(=O)c5ccc(F)cc5)CC4)c3)c2cc1OC
viability [1]: 123% | inhibition at 10 µM (RAW264.7): 52.2%

Structure (SMILES): COc1cc2ncnc(O[C@H]3CC[C@@H](N)CC3)c2cc1OC
viability [1]: 88.9% | inhibition at 10 µM (RAW264.7): 75.8%

Structure (SMILES): COc1cc2ncnc(Oc3cccc(NC(=O)O[C@H]4CC[C@@H](N)CC4)c3)c2cc1OC
viability [1]: 96.5% | inhibition at 10 µM (RAW264.7): 73.4%

Structure (SMILES): COc1cc2ncnc(N[C@H]3CC[C@@H](NCCO)CC3)c2cc1OC
viability [1]: 99.7% | inhibition at 10 µM (RAW264.7): 10.6%

Structure (SMILES): COc1cc2ncnc(Oc3cccc(NC(=O)N[C@H]4CC[C@@H](NC(=O)c5cccc(F)c5)CC4)c3)c2cc1OC
viability [1]: 121% | inhibition at 10 µM (RAW264.7): 45.4%

Structure (SMILES): COc1cc2ncnc(Oc3cccc(NC(=O)N[C@H]4CC[C@@H](NC(=O)c5ccccn5)CC4)c3)c2cc1OC
viability [1]: 116% | inhibition at 10 µM (RAW264.7): 45.4%

Structure (SMILES): COc1cc2ncnc(Oc3cccc(NC(=O)N[C@H]4CC[C@@H](NC(=O)OC(C)(C)C)CC4)c3)c2cc1OC
viability [1]: 92.1% | inhibition at 10 µM (RAW264.7): 2.1%

Structure (SMILES): Nc1ccc(O)c(C(=O)O)c1 [MESALAMINE]
Activity (Mus musculus [12]): Active | Activity (Mus musculus [13]): Active | Activity (Mus musculus [14]): 6 cm | Activity (Mus musculus [15]): Active | Activity (Mus musculus [16]): Active | Activity (Mus musculus [17]): Active | Activity (Mus musculus [18]): Active

Structure (SMILES): N[C@H]1C[C@@H](OC(=O)c2nn(-c3ccccc3)ccc2=O)C1
viability [1]: 89% | inhibition at 10 µM (RAW264.7): 33.2%

Structure (SMILES): N[C@H]1CC[C@@H](Oc2ncnc3ccccc23)CC1
viability [1]: 103% | inhibition at 10 µM (RAW264.7): 76.8%

Structure (SMILES): N[C@H]1CC[C@@H](OC(=O)c2nn(-c3ccccc3)ccc2=O)CC1
viability [1]: 107% | inhibition (RAW264.7): inactive

Structure (SMILES): COc1cc2ncnc(Oc3cccc(NC(=O)N[C@H]4CC[C@@H](NC(=O)c5ccc(C)cc5)CC4)c3)c2cc1OC
viability [1]: 124% | inhibition at 10 µM (RAW264.7): 72.7%

Structure (SMILES): COc1cc2ncnc(N[C@H]3CC[C@H](N)CC3)c2cc1OC
viability [1]: 108% | inhibition at 10 µM (RAW264.7): 64.6%

Structure (SMILES): CN[C@H]1CC[C@@H](Nc2ncnc3cc(OC)c(OC)cc23)CC1
viability [1]: 98.2% | inhibition (RAW264.7): inactive

Structure (SMILES): COc1cc2ncnc(N[C@H]3CC[C@@H](NCCCN(C)C)CC3)c2cc1OC
viability [1]: 96.5% | inhibition at 10 µM (RAW264.7): 11.1%

Structure (SMILES): COc1cc2ncnc(Oc3cccc(NC(=O)N[C@H]4CC[C@@H](NC(=O)CCC5CCCC5)CC4)c3)c2cc1OC
viability [1]: 117% | inhibition at 10 µM (RAW264.7): 52.9%
